{"source": "patent US11730717B1", "about": "“Melanin-inspired antimicrobial” (The Board of Regents for the Oklahoma Agricultural and …, priority 2020, dated 2023)", "key": {"HeLa cells": {"test_system": "HeLa cells", "assay": "Cytotoxicity, LDH leakage assay", "assay_type": "cell-based", "procedure": "HeLa cells were cultured in 96-well plates at 37° C. and 5% CO2 in Roswell Park Memorial Institute (RMPI) 1640 medium with 5% Fetal Bovine Serum (FBS). Once HeLa cells reached 95% confluency, the media was replaced with media containing various concentrations of EIPE-1, DBI or DMSO for 24 hours. Cell cytotoxicity was measured using the lactate dehydrogenase (LDH) leakage assay. Results were compared to maximum values of lysed cells in control wells and were graphed as percent relative cytotoxicity using Prism 5.0.\nHost cell cytotoxicity against HeLa cells was examined for both DBI and EIPE-1 (FIG. 2B). LDH release was examined after 24-hour exposure to varying concentrations of DBI, DMSO and EIPE-1. […] Thus, EIPE-1 is relatively safe to use with respect to eukaryotic cells."}, "MRSA [1]": {"test_system": "MRSA", "assay": "Live/Dead staining and fluorescent microscopy", "assay_type": "cell-based, Staphylococcus aureus", "procedure": "MRSA was grown overnight in 10 mL of LB broth, sub-cultured (5 mL of overnight culture added to 20 mL LB) and grown for 3 h. Bacterial culture (150 μL) were removed and transferred to a 1.5 mL centrifuge tube, which was treated with DMSO, EIPE-1 (0.01 mg/mL) or DBI (0.01 mg/mL) for 30 minutes. Equal amounts of the two dyes (SYTO 9 dye, 3.34 mM in DMSO), and propidium iodide (20 mM in DMSO) were mixed. Then 0.5 μL of the dye mixture was added to each tube of treated MRSA cultures. Wet mounts were prepared on glass slides for imaging live and dead MRSA, and Differential Interference Contrast (DIC) images were obtained using a Leica DMI600B fluorescent microscope. To determine the percentage of bacteria alive and dead, the total bacteria in each condition were counted in 20 fields of view and graphed using Prism 5.0.\nTo address MRSA viability in response to EIPE-1 treatment, a Live/Dead staining and microscopy was utilized. MRSA was treated with either DBI or EIPE-1 (16 μg/mL, 17 μM each) for 30 minutes (DMSO was used as a negative solvent control) and then stained with the dyes, Syto™ 9 and propidium iodide."}, "MRSA [2]": {"test_system": "MRSA", "assay": "Comparison with Methicillin and Gentamicin, recoverable CFU", "assay_type": "cell-based, Staphylococcus aureus", "settings": "compared with Methicillin and Gentamicin treatment", "procedure": "(§1) To determine CFUs of PA and MRSA after exposure to DMSO, DBI, EIPE-1, Gentamicin or Methicillin, 10-fold serial dilutions were prepared in 96-well micro plates using multichannel pipettes. For each dilution, 25 ptL of each sample was pipetted onto a plate containing agar medium and incubated for 18 h at 37° C. The number of colonies for each dilution were counted and used to back calculate the number of bacteria per mL (CFU/mL) in each original bacterial culture.\n(§2) EIPE-1 antimicrobial activity against MRSA and PA was compared to that of Methicillin and Gentamicin treatment. Bacterial cultures were grown, normalized and then exposed to either DBI, DMSO (solvent control), EIPE-1, Methicillin or Gentamicin (FIG. 3). […] This is highly significant and novel as methicillin resistance is a huge problem in hospitals and patient treatment worldwide. […] Gram-negative bacteria like PA have an outer membrane covered with lipopolysaccharides that protects the bacteria from antibiotics, dyes, and detergents from penetrating the bacterial cell."}, "[3]": {"test_system": "Pseudomonas aeruginosa (PA)", "assay": "Comparison with Methicillin and Gentamicin, recoverable CFU", "assay_type": "cell-based", "settings": "compared with Methicillin and Gentamicin treatment", "procedure": "as §1, §2"}, "S. epidermidis SK01": {"test_system": "S. epidermidis SK01", "assay": "MIC and MBC values (Table 2)", "assay_type": "cell-based", "settings": "Staphylococcus epidermidis"}, "[4]": {"test_system": "Candida albicans strain SC5314", "assay": "Antifungal MIC assay", "assay_type": "cell-based", "settings": "for MIC: Candida albicans", "procedure": "Cryptococcus neoformans serotype A strain H99 as well as Candida ablicans strain SC5314, were readily available in the lab. The stock of cells is stored at −80° C. to preserve the fungi and prevent contamination. The cells were grown and maintained in yeast extract-peptone-dextrose (YPD) media (Difco). Cryptococcus or Candida cells were incubated in YPD broth for 18 hrs at 30° C., in a shaking incubator. After the incubation period, they were washed three times in sterile phosphate-buffered saline (PBS) to remove all remaining residue of YPD. The cells were then quantified by using trypan blue dye exclusion in a hemocytometer.\nC. albicans were suspended in RPMI with MOPS, 0.165M, at a concentration of 0.5×10^3 cells/mL. RPMI Mops media was added to a 96-well plate in a volume of 100 μL to every well, with the exception of column 1. An additional 80 μL of RPMI MOPS was added to column 4 for a total of 180 μL/per well. EIPE-1 was added to columns 2 and 4 with a volume of 20 μL at a concentration of 1 mg/mL. Contents were mixed, then serially diluted 100 μL down the plate until column 11. The last 100 μL was discarded, leaving column 12 blank. C. albicans was added at a volume of 100 μL per well from column 4 to column 12, so the final volume of the wells was 200 μL. Plates were incubated at 35° C. in a humid incubator for 48 hrs."}, "C. neoformans": {"test_system": "C. neoformans", "assay": "Scanning electron microscopy of treated fungal cells", "assay_type": "cell-based, Cryptococcus neoformans", "settings": "exposed at the minimum inhibitory concentration 1.749 μg/mL for 4, 8, 12 or 24 hrs", "procedure": "C. neoformans were suspended in RPMI with MOPs, 0.165M, at a concentration of 2.0×10^6 cells/mL. RPMI Mops media was added to a 2 mL collection tube in a volume of 100 μL. […] The tubes were incubated at 35° C. in a humid incubator for set time points of 4 hrs, 8 hrs, 12 hrs, or 24 hrs. Once removed, the tubes were placed in a centrifuge for 1 min. at 5000 rpm. Media was removed. The pellet was resuspended in 2.0% glutaraldehyde in 0.1 M cacodylate buffer at a volume of 1 mL for a minimum of 2 hrs.\nFixed C. neoformans cells were placed in a centrifuge for 1 min at 5000 rpm. Media was removed and C. neoformans was rinsed 3 times in a buffered wash at fixed intervals of 15 mins. Rinsed cells were resuspended in 1% OsO4 at room temperature for 1 hr in a 36-well plate with a cover slip. 1% OsO4 was removed. C. neoformans was rinsed 3 times in a buffered wash at fixed intervals of 15 mins. C. neoformans were dehydrated in ethanol at 50%, 70%, 90%, 95%, and 100% three times at fixed intervals of 15 mins. C. neoformans were wash two times with […] at a time interval of 5 mins. Cover slips were placed on a clear sheet for 12 hrs to dry. Cover slips were mounted on stubs with silver paint. The cover slips were covered in an Au—Pd coat. […]"}}, "note": "Values joined by “and” are separate entries in the source; they are usually repeats but may differ in a detail not shown here. Equal values may be shown once. “Also recorded” adds a separate entry of the source. Read-outs that look alike come from different tables or passages of the source.", "data": [{"smiles": "COC(=O)c1cc2c(C#Cc3ccc(OCCC[N+](C)(C)C)cc3)c(OC)c(OC)c(C#Cc3ccc(OCCC[N+](C)(C)C)cc3)c2n1C", "note": "[EIPE-1, 3,3′-((((5,6-dimethoxy-2-(methoxycarbonyl)-1-methyl-1H-indole-4,7-diyl)bis(ethyne-2,1-diyl))bis(4,1-phenylene))bis(oxy))bis(N,N,N-trimethylpropan-1-aminium) iodide]", "values": [{"measurement": "concentration at which cell cytotoxicity was detected", "setting": "HeLa cells", "result": "62.5 μg/mL and 66.8 μM"}, {"measurement": "maximal cytotoxicity (LDH release)", "setting": "HeLa cells; 24-hour exposure, concentrations above 62.5 μg/mL (66.8 μM)", "result": 50, "unit": "%"}, {"measurement": "cytotoxic concentration relative to the MIC against S. aureus", "setting": "HeLa cells; prolonged exposure (24 h)", "result": "4-5 fold"}, {"measurement": "Live/Dead staining (green = intact membrane, red = damaged membrane)", "setting": "MRSA [1]; 16 μg/mL, 17 μM, 30 minutes, Syto 9 and propidium iodide", "result": "only stained red"}, {"measurement": "time of exposure until biocidal activity occurred", "setting": "MRSA [1]; MRSA", "result": "≤ 30", "unit": "min"}, {"measurement": "biocidal activity against MRSA", "setting": "MRSA [2]", "result": "effective in killing MRSA; also recorded: exhibited biocidal activity"}, {"measurement": "activity against PA", "setting": "[3]", "result": "does not appear to have activity; also recorded: did not display any activity"}, {"measurement": "MBC", "setting": "S. epidermidis SK01", "result": 2, "unit": "µg/mL"}, {"measurement": "MIC", "setting": "S. epidermidis SK01", "result": 1, "unit": "µg/mL"}, {"measurement": "Minimum inhibitory concentration (MIC) for the isolate of C. albicans", "setting": "[4]; 35° C., 48 hrs, RPMI with MOPS", "result": "2.705 ± 0.3962", "unit": "µg/mL"}, {"measurement": "MIC", "setting": "[4]; SC5314, 48 h, 35° C., 48 hrs, RPMI with MOPS, read-out: Minimum inhibitory concentration (MIC) for the isolate of C. albicans", "result": 2.71, "unit": "µg/mL"}, {"measurement": "MIC", "setting": "[4]; SC5314, across seven experiments, read-out: Candida MIC", "result": 2.46, "unit": "µg/mL"}, {"measurement": "cell wall changes by SEM", "setting": "C. neoformans", "result": "structural changes to their cell wall; also recorded: changes to the cell wall shown at 4 hours"}]}]}
